From US20090169487A1, “Essential Oil Diffusion” (priority 2007, published 2009)

B1: Dornase Alfa: recombinant human DNase which decreases the viscoelasticity of mucous (protein, UniProt P24855 23-282, looked up)
Deoxyribonuclease-1: LKIAAFNIQTFGETKMSNATLVSYIVQILSRYDIALVQEVRDSHLTAVGKLLDNLNQDAPDTYHYVVSEPLGRNSYKERYLFVYRPDQVSAVDSYYYDDGCEPCGNDTFNREPAIVRFFSRFTEVREFAIVPLHAAPGDAVAEIDALYDVYLDVQEKWGLEDVMLMGDFNAGCSYVRPSQWSSIRLWTSPTFQWLIPDSADTTATPTHCAYDRIVVAGMLLRGAVVPDSALPFNFQAAYGLSDQLAQAISDHYPVEVMLK

Assays:
[1] = asthmatics, double-blind randomized control trial; cited from earlier work
[2] = Case report: diffused essential oils after NAC and Dornase Alfa in a child with RSV, oxygen requirement and atelectasis; type: in vivo, human; details: for Overall response of oxygen requirement to treatment: summary of the case
Text: They experienced a three day prodrome of upper and lower respiratory symptoms and increasing oxygen requirement treated initially at home. They were admitted to a local hospital 7 days prior to the current admission where they continued to received oxygen and was started on a 7 day antibiotic course despite a positive respiratory direct fluorescent antibody test for RSV. They were discharged home on 3 liters oxygen and persistent left upper lobe atelectasis. They presented to our pediatric intensive care unit (PICU) within 12 hours of discharge with respiratory distress and central cyanosis, pulse oximetry oxygen saturation (spO2) 83% off oxygen, 88% on 3 liters per minute (LPM) oxygen.
Past medical history was significant for titanium rib insertion for restrictive lung disease, metal rods for thoracic scoliosis, hip repair for hip dislocation, and gastric feeding tube placement. Their home medication regimen included a multivitamin, calcium carbonate, and levalbuterol 1 unit dose nebulized every 8 hours. Lasix had been added during the prior hospitalization.
MW was placed on 6 liters humidified, high-flow nasal canula oxygen (NC O2), achieving a spO2 of 93-98%. […] pulmonary toilet regimen consisted of percussor chest physiotherapy every four hours and postural drainage. On day 4 of admission, day 14 of oxygen requirement, nebulized 20% n-acetyl cysteine (NAC) every eight hours was added. Oxygen requirement began to improve over the next 24 hours, weaning to 2 LPM NC O2, but returned to 3 LPM when […] remained persistently below spO2 93%. Nebulized Dornase Alfa 2.5 mg every twelve hours was added on day 7, day 17 of oxygen requirement. Oxygen requirement remained at 3 LPM with frequent desaturations to the mid 80's despite the intensification of mucolytic therapy.
On day 8, the previous treatments were discontinued and the essential oil mixture described in TABLE 1, above, including Lavandula latifolia (spike lavender), Thymus mastichina (Spanish marjoram), Abies balsamea (balsam fir), and Mentha×piperita (peppermint) was nebulized at the parents' request. Three drops were applied to a fibrous filter inserted into the base of a fan diffuser (Fan Fuser, Cinegraph, Inc. Seal Beach, Calif.). The mixture was diffused every six hours into the room and passively inhaled by MW. Oxygen requirement was reduced to 1.5 LPM within 12 hours. […] MW was weaned to ¼ LPM NC O2 on the second day of use wand discharged home with an spO2 of 97%, on day 10 of admission, day 20 of oxygen requirement.

| Molecule | Steroid-sparing effect [1] | Oxygen requirement returned to ([2]; on NAC, when they remained persistently below spO2 93%) [LPM] | Oxygen requirement (NC O2) ([2]; over the next 24 hours after adding nebulized 20% NAC every eight hours, from 6 liters high-flow) [LPM] | Overall response of oxygen requirement to treatment [2] | Desaturations (spO2) ([2]; frequent desaturations despite intensified mucolytic therapy (NAC plus Dornase Alfa)) | Oxygen requirement ([2]; nebulized 2.5 mg every twelve hours added on day 7, on top of NAC) [LPM] |
| --- | --- | --- | --- | --- | --- | --- |
| CC12CCC(CC1)C(C)(C)O2 [eucalyptol, 1,8 cineole] | steroid-sparing effects | – | – | – | – | – |
| CC(=O)N[C@@H](CS)C(=O)O [n-acetyl cysteine (NAC), N-Acetyl Cysteine] | – | 3 | 2 | insufficient or worsening response | – | – |
| B1 | – | – | – | insufficient or worsening response | mid 80's | 3 |
